# Measured values from US20190142810A1, “MITOCHONDRIAL INHIBITORS FOR THE TREATMENT OF PROLIFERATION DISORDERS” (Basilea Pharmaceutica International AG, priority 2016, published 2019).
# How the values were obtained:
# [1] = test system: Oxygen consumption (mitochondrial function); experiment: Oxygen consumption assay (MitoXpress probe); format: cell-based; settings: 5 h, MitoXpress probe signal, kinetic analysis at 37° C. for 5 hours, compared to untreated cells
# Excerpt: Oxygen consumption is one of the most informative and direct measures of mitochondrial function and can be measured, for example, by using the MitoXpress® assay (Luxcel MX-2001, Luxcel Biosciences). The MitoXpress® probe is one of a family of phosphorescent oxygen sensitive probes. The assay exploits the ability of oxygen to quench the excited state of the MitoXpress® probe. As the test material respires (i.e. the cells), oxygen is depleted in the surrounding solution/environment, which increases the probe phosphorescence signal. Changes in oxygen consumption reflecting changes in mitochondrial activity are seen as changes in the MitoXpress® probe signal over time.
# Cells were seeded in 96 well black plates with transparent bottoms (Greiner Bio-One cat. no. 655090) at a density of 50′000 cells/well in a final volume of 100 μL. After 24 hours the incubation media was removed and 150 μL of fresh media containing inhibitors at different concentrations was added to each well. Then, 10 μL of MitoXpress® and 150 μL mineral oil were added per well. Reading from the top of the plate, kinetic analysis was performed at 37° C. for 5 hours using a Synergy 4 plate reader (BioTek) and Time-resolved Fluoresence (TRF) wavelengths of 380/11 nm excitation and 650/20 nm emission or 665/40 emission (30 microsecond delay time, 100 microsecond integration time, gain or sensitivity settings set at either medium or high). IC50s were calculated as the concentration that inhibits 50% of the phosphorescent oxygen sensitive probe signal (MitoXpress®) as compared to untreated cells.
# HeLa galactose cells = experiment: Cell growth and proliferation assay of HeLa galactose cells (crystal violet); format: cell-based; settings: Homo sapiens, HeLa, 72 h, 72 hours incubation, crystal violet staining, absorbance at 590 nm
# Procedure: The cervical tumor cell line HeLa (ATCC, CCL-2) was cultivated in DMEM medium (Invitrogen cat. no. 11971, 4.5 g/L high glucose) containing 10% fetal calf serum (Sigma cat. no. F9665) and 1% Penicillin/Streptomycin (Sigma cat. no. P0781) at 37° C. in 5% CO2. HeLa galactose cells (i.e. HeLa cells that grow in high concentrations of galactose) were generated from HeLa glucose cells (i.e. HeLa cells that grow in high concentrations of glucose) by gradually changing the amount of glucose in the media to zero glucose in the presence of galactose as a sugar source (50% galactose/50% glucose media for one week, then 75% galactose/25% glucose media for one week, to 100% galactose media in the third week). Galactose media (Invitrogen cat. no. 11966) was supplemented with 10 mM galactose (Sigma cat. no. G5388).
# Cell Growth and Proliferation Assay of HeLa Galactose and Glucose Cells
# HeLa galactose cells and HeLa glucose cells were seeded in 96 well plates (TPP, cat. no 92696) at 2000 and 1500 cells/well, respectively, in 100 μL of complete medium. After overnight incubation the cells were incubated for 72 hours in complete medium containing 0.001% DMSO or compounds (final concentration of DMSO 0.001%). After the medium was removed, cells were fixed and stained by adding 50 μL crystal violet staining (0.2% crystal violet (Sigma-Aldrich cat. no. C0775) in 50% methanol) per well. The plates were incubated for 1 hour at room temperature. Subsequently the stain was decanted and plates were washed 4 times with de-mineralized water. Plates were air-dried for 2 hours. The stain was dissolved by adding 100 μL buffer (0.1 M Tris pH 7.5, 0.2% SDS, 20% ethanol) per well and shaking the plates. Absorbance at 590 nm was measured using a SpectraMax® 250 plate reader (Molecular Devices). Antiproliferative/growth inhibition IC50s were calculated from concentration-response curves using GraphPad Prism software.
Structure (SMILES),IC50 (HeLa galactose cells),IC50 [1]
"Cc1nsc(NC(=O)N2CCC(Cc3c(F)cc(C(F)(F)F)cc3F)CC2)n1 [Example 40, 4-[[2,6-difluoro-4-(trifluoromethyl)phenyl]methyl]-N-(3-methyl-1,2,4-thiadiazol-5-yl)piperidine-1-carboxamide]",32 nM,48 nM
"Cc1nsc(NC(=O)N2CCC(=Cc3ccc(N(C)C)cc3F)CC2)n1 [Example 47, 4-[[4-(dimethylamino)-2-fluoro-phenyl]methylene]-N-(3-methyl-1,2,4-thiadiazol-5-yl)piperidine-1-carboxamide]",25 nM,67 nM
O=C(Nc1ncns1)N1CCC(Cc2ccc(Cl)cc2F)CC1 [Example 48],146 nM,278 nM
"Cc1nsc(NC(=O)N2CCCC(Cc3ccc(Cl)cc3F)CC2)n1 (stereo not drawn) [Example 49, 4-[(4-chloro-2-fluoro-phenyl)methyl]-N-(3-methyl-1,2,4-thiadiazol-5-yl)azepane-1-carboxamide]",21 nM,58 nM
Cc1nsc(NC(=O)N2CCCN(Cc3ccc(Cl)cc3F)CC2)n1 [Example 51],67 nM,182 nM
Cc1nsc(NC(=O)N2CCC(=Cc3ccc(OC(F)(F)F)cc3)CC2)n1 [Example 52],271 nM,477 nM
Cc1nsc(NC(=O)N2CCC(Cc3ccc(OC(F)(F)F)cc3F)CC2)n1 [Example 55],202 nM,383 nM
Cc1nsc(NC(=O)N2CCC(Oc3ccc(OC(F)(F)F)cc3)CC2)n1 [Example 56],736 nM,1250 nM
"Cc1nsc(NC(=O)N2CCC(Cc3ccc(F)cc3F)CC2)n1 [Example 60, 4-[(2,4-difluorophenyl)methyl]-N-(3-methyl-1,2,4-thiadiazol-5-yl)piperidine-1-carboxamide]",53 nM,68 nM
Cc1nsc(NC(=O)N2CCC(Cc3ncc(Cl)cc3F)CC2)n1 [Example 62],57 nM,122 nM
COc1cc(CC2CCN(C(=O)Nc3nc(C)ns3)CC2)c(F)cc1Cl [Example 65],50 nM,126 nM
COc1cc(F)c(C=C2CCN(C(=O)Nc3nc(C)ns3)CC2)cn1 [Example 69],91 nM,119 nM
"CCc1nsc(NC(=O)N2CCC(Cc3ccc(Cl)cc3F)CC2)n1 [Example 70, 4-[(4-chloro-2-fluoro-phenyl)methyl]-N-(3-ethyl-1,2,4-thiadiazol-5-yl)piperidine-1-carboxamide]",30 nM,65 nM
"O=C(Nc1nc(CCN2CCOCC2)ns1)N1CCC(=Cc2ccc(Cl)cc2F)CC1 [Example 79, 4-[(4-chloro-2-fluoro-phenyl)methylene]-N-[3-(2-morpholinoethyl)-1,2,4-thiadiazol-5-yl]piperidine-1-carboxamide]",279 nM,378 nM
"N#CCCc1nsc(NC(=O)N2CCC(=Cc3ccc(Cl)cc3F)CC2)n1 [Example 80, 4-[(4-chloro-2-fluoro-phenyl)methylene]-N-[3-(2-cyanoethyl)-1,2,4-thiadiazol-5-yl]piperidine-1-carboxamide]",134 nM,108 nM
"Cc1nsc(NC(=O)N2CC/C(=C/c3ccc(Cl)cc3F)C(C)C2)n1 (stereo not drawn) [Example 83, (4Z)-4-[(4-chloro-2-fluoro-phenyl)methylene]-3-methyl-N-(3-methyl-1,2,4-thiadiazol-5-yl)piperidine-1-carboxamide]",115 nM,329 nM

# Further compounds by falling IC50 (HeLa galactose cells), results first:
IC50 (HeLa galactose cells),Structure (SMILES),IC50 [1]
329 nM,Cc1nsc(NC(=O)N2CCC(Cc3ccc(OC(F)(F)F)cc3)CC2)n1 [Example 53],890 nM
284 nM,"Cc1nsc(NC(=O)N2CCC(=Cc3ccc(N4CCCC4)cc3F)CC2)n1 [Example 45, 4-[(2-fluoro-4-pyrrolidin-1-yl-phenyl)methylene]-N-(3-methyl-1,2,4-thiadiazol-5-yl)piperidine-1-carboxamide]",440 nM
227 nM,Cc1nccc(NC(=O)N2CCC(Cc3ccc(Cl)cc3F)CC2)n1 [Example 71],338 nM
197 nM,"Cc1nsc(NC(=O)N2CCN(Cc3ccc(Cl)cc3F)CC2)n1 [Example 50, 4-[(4-chloro-2-fluoro-phenyl)methyl]-N-(3-methyl-1,2,4-thiadiazol-5-yl)piperazine-1-carboxamide]",255 nM
190 nM,COc1ccc(C(=O)C2CCN(C(=O)Nc3nc(C)ns3)CC2)cc1 [Example 76],332 nM
186 nM,Cc1nsc(NC(=O)N2CCC(=Cc3ccc(OC(F)(F)F)cc3F)CC2)n1 [Example 54],235 nM
163 nM,"O=C(Nc1nc(CCO)ns1)N1CCC(=Cc2ccc(Cl)cc2F)CC1 [Example 78, 4-[(4-chloro-2-fluoro-phenyl)methylene]-N-[3-(2-hydroxyethyl)-1,2,4-thiadiazol-5-yl]piperidine-1-carboxamide]",267 nM
125 nM,Cc1nsc(NC(=O)N2CCC(=Cc3ncc(Cl)cc3F)CC2)n1 [Example 67],233 nM
100 nM,COc1cc(F)c(CC2CCN(C(=O)Nc3nc(C)ns3)CC2)cn1 [Example 68],179 nM
89 nM,Cc1nsc(NC(=O)N2CCC(Cc3cc(C)c(Cl)cc3F)CC2)n1 [Example 64],187 nM
67 nM,Cc1nsc(NC(=O)N2CCC(Cc3c(F)cc(Cl)cc3Cl)CC2)n1 [Example 66],119 nM
54 nM,"Cc1nsc(NC(=O)N2CCC(C(=O)c3ccc(F)cc3F)CC2)n1 [Example 75, 4-(2,4-difluorobenzoyl)-N-(3-methyl-1,2,4-thiadiazol-5-yl)piperidine-1-carboxamide]",59 nM
48 nM,"Cc1nsc(NC(=O)N2CCC(C(=O)c3ccc(Br)cc3)CC2)n1 [Example 77, 4-(4-bromobenzoyl)-N-(3-methyl-1,2,4-thiadiazol-5-yl)piperidine-1-carboxamide]",54 nM
47 nM,Cc1nsc(NC(=O)N2CCC(Cc3ccc(N(C)C)cc3F)CC2)n1 [Example 46],129 nM
41 nM,"Cc1nsc(NC(=O)N2CCC(=Cc3ccc(F)cc3F)CC2)n1 [Example 59, 4-[(2,4-difluorophenyl)methylene]-N-(3-methyl-1,2,4-thiadiazol-5-yl)piperidine-1-carboxamide]",43 nM
38 nM,"Cc1nsc(NC(=O)N2CC/C(=C\c3ccc(Cl)cc3F)C(C)(C)C2)n1 [Example 85, (4E)-4-[(4-chloro-2-fluoro-phenyl)methylene]-3,3-dimethyl-N-(3-methyl-1,2,4-thiadiazol-5-yl)piperidine-1-carboxamide]",83 nM
34 nM,"Cc1cc(NC(=O)N2CCC(Cc3ccc(Cl)cc3F)CC2)ccn1 [Example 72, 4-[(4-chloro-2-fluoro-phenyl)methyl]-N-(2-methyl-4-pyridyl)piperidine-1-carboxamide]",68 nM
34 nM,"Cc1nsc(NC(=O)N2CCC(C(=O)c3ccc(Cl)cc3)CC2)n1 [Example 74, 4-(4-chlorobenzoyl)-N-(3-methyl-1,2,4-thiadiazol-5-yl)piperidine-1-carboxamide]",51 nM
31 nM,"Cc1nsc(NC(=O)N2CC/C(=C\c3ccc(Cl)cc3F)C(C)C2)n1 (stereo not drawn) [Example 82, (4E)-4-[(4-chloro-2-fluoro-phenyl)methylene]-3-methyl-N-(3-methyl-1,2,4-thiadiazol-5-yl)piperidine-1-carboxamide]",78 nM
20 nM,"Cc1cc(NC(=O)N2CCC(Cc3ccc(Cl)cc3F)CC2)sn1 [Example 63, 4-[(4-chloro-2-fluoro-phenyl)methyl]-N-(3-methylisothiazol-5-yl)piperidine-1-carboxamide]",56 nM
